Experiments:
[1] = tested on: Jurkat cells; assay: Caspase 3 activity (apoptosis) in Jurkat cells after storage under xenon pressure; format: cell-based; settings: 4 Atm excessive pressure of gas comprising xenon, 24 hrs of storage, with and without doxorubicin
[2] = tested on: U-937 cells; assay: JC-1 staining of U-937 cells with flow cytometry (state of mitochondria, apoptosis) after storage under xenon; format: cell-based, human
Method: In order to obtain the data presented in these Examples, Leukemic monocyte lymphoma cells U-937 were grown in RPMI-1640 medium supplied with 15% fetal bovine serum and 10 mkg/ml gentamicin in the atmosphere of 5% CO2 at 37° C. Petri dishes containing the cell culture in exponential phase of growth were placed into a holding rack and transferred into containers having an inner volume of approximately 1.5 L which were designed for storage in hyperbaric conditions. The mixture of gases Xe—CO2 (95% and 5% respectively) was used for buildup of pressure of 0.5 to 4.0 Atm above ambient pressure over a period of 5-10 minutes, with particular parameters presented in connection with the Figures presented herein. The temperature was held from 22° C. to 37° C. in this embodiment of the invention Gases were mixed in a separate tank (or in the container/tube) based on calculation of their partial pressure. The container with Petri dishes was kept at this temperature and pressure for 2 hrs. Then the container was transferred to a refrigerator with decreased temperature (from 0.1° C. to +5° C.), while maintaining the pressure. The container was held at under these conditions for approximately 4 weeks. After that, the pressure was released and the container holding the cells was kept for 7 days in a household at a temperature of +4° C. to +10° C. and atmospheric pressure.
Accordingly, these cells respond to a large number of both extracellular and intracellular proapoptotic signals and have been used as model cells for analyzing apoptosis (Pimentel-Muiños F X, Seed B. Regulated commitment of TNF receptor signaling: a molecular switch for death or activation. Immunity. 1999 December; 11 (6):783-93; Karas M, Zaks T Z, Liu J L, LeRoith D. T cell receptor-induced activation and apoptosis in cycling human T cells occur throughout the cell cycle. Mol Biol Cell. 1999 December; 10 (12):4441-50; Valavanis C, Hu Y, Yang Y, Osborne B A, Chouaib S, Greene L, Ashwell J D, Schwartz L M. Model cell lines for the study of apoptosis in vitro. Methods Cell Biol. 2001; 66:417-36).

[3] = tested on: Jurkat cells; assay: Live Jurkat cell count (trypan blue) after transfer from storage to standard cultivation conditions; format: cell-based; settings: 24 hrs under standard conditions (37° C., 5% CO2) after storage, Xe+37 doxo and Xe+4 doxo vs control, FIG. 3

**Q.** [Xe] [xenon] was tested. Which “development of spontaneous and induced (Doxo) apoptosis, caspase 3 activity” value ([1]; FIG. 4) did it give?
**A.** prevented development of both spontaneous (series no Doxo in the diagram) and induced (series Doxo in the diagram) apoptosis

**Q.** And the “development of spontaneous and induced (Doxo) apoptosis, caspase 3 activity” value ([1]; FIG. 4, listed as Xenon)?
**A.** prevented development of both spontaneous (no Doxo and non-treated) and induced (Doxo) apoptosis

**Q.** And the “development of spontaneous and induced (Doxo) apoptosis” value ([2]; 4 Atm over ambient pressure Xe, with and without doxorubicin, FIG. 5)?
**A.** prevented development of both spontaneous (no Doxo and non-treated) and induced (Doxo) apoptosis

**Q.** What about the “damage of mitochondria compared to control” value ([2]; JC-1, after 7 days of storage, control = no gas, 37° C.) of the same molecule?
**A.** significantly decreased damage of mitochondria

**Q.** And the “percentage of doxorubicin-treated cells with undamaged mitochondria” value ([2]; JC-1, vs cells stored without xenon, after 24 hrs and 7 days of storage, FIG. 5)?
**A.** significantly higher

**Q.** And the “action on cellular mitochondria” value ([2]; xenon both in combination with cooling and without cooling)?
**A.** exerted protective action on cellular mitochondria

**Q.** And the “cell growth (number of live cells) after exposure to doxorubicin” value [3]?
**A.** improved cell growth after exposure to doxorubicin
